Literature values, collected in Sander's compilation of Henry's law constants.
“And” between values parts separate entries of the source, which are not always exact repeats. Equal values may be shown once. Values belong to the compound of their own block, whether it stands above or below them.

Assay: Henry solubility constant Hcp at 298.15 K (mol/(m3 Pa))
Conditions: cited value
[1] = reference: Fogg and Sangster (2003)
[2] = reference: Mackay et al. (1992b)
[3] = reference: Barcelo and Hennion (1997)
[4] = reference: Burkholder et al. (2015)
[5] = reference: Burkholder et al. (2019)
[6] = reference: Sander et al. (2006)
[7] = reference: Sander et al. (2011)

SMILES: Oc1ccc(Cl)cc1Cl [2,4-dichlorophenol]
Henry solubility constant Hcp (reference: Goldstein (1982)): 1.5

SMILES: CO/N=C(/C(=O)OC)c1ccccc1CO/N=C(\C)c1cccc(C(F)(F)F)c1 [trifloxystrobin]
Henry solubility constant Hcp (reference: MacBean (2012b)): 430

SMILES: CCCCC#N [pentanenitrile]
Henry solubility constant Hcp (reference: Brockbank (2013)): 0.16
Henry solubility constant Hcp (reference: Plyasunov et al. (2006)): 0.14

SMILES: Cc1ccccc1 [methylbenzene]
Henry solubility constant Hcp (reference: Brockbank (2013)): 0.0019
Henry solubility constant Hcp (reference: Goldstein (1982)): 0.0015
Henry solubility constant Hcp (reference: McAuliffe (1971)): 0.0015

SMILES: CCI [iodoethane]
Henry solubility constant Hcp (reference: Brockbank (2013)): 0.0015
Henry solubility constant Hcp [1]: 0.0015

SMILES: ClC(Cl)=C(Cl)C(Cl)=C(Cl)Cl [hexachlorobutadiene]
Henry solubility constant Hcp (reference: Brockbank (2013)): 0.00056
Henry solubility constant Hcp [1]: 0.00083
Henry solubility constant Hcp (reference: Goldstein (1982)): 0.00098
Henry solubility constant Hcp (reference: Horvath and Getzen (1999)): 0.00096

Henry solubility constant Hcp (reference: Brockbank (2013)): 2.8e-05
SMILES: CC1CCCC1 [methylcyclopentane]

Henry solubility constant Hcp [2]: 0.025
SMILES: C(=C\c1ccccc1)/c1ccccc1 [(E)-stilbene]

SMILES: CSc1nc(NC(C)C)nc(NC(C)C)n1 [prometryn]
Henry solubility constant Hcp [3]: 20

Henry solubility constant Hcp (reference: Brockbank (2013)): 7.6e-05
SMILES: CCCCCCCCCCc1ccccc1 [decylbenzene]

Henry solubility constant Hcp (reference: Brockbank (2013)): 0.011
SMILES: CCCC(=O)OCCC(C)C [3-methylbutyl butanoate]

Henry solubility constant Hcp (reference: Brockbank (2013)): 1700
SMILES: COc1cc(C=O)ccc1O [vanillin]

SMILES: CCC(CC)Nc1c([N+](=O)[O-])cc(C)c(C)c1[N+](=O)[O-] [penoxaline]
Henry solubility constant Hcp [3]: 0.0026

Henry solubility constant Hcp (reference: Howard (1993)): 25
SMILES: OCc1ccccc1 [(hydroxymethyl)-benzene]

SMILES: CCCCCCI [1-iodohexane]
Henry solubility constant Hcp (reference: Brockbank (2013)): 0.00034

SMILES: ClC(Cl)(Cl)Cl [tetrachloromethane]
Henry solubility constant Hcp (reference: Brockbank (2013)): 0.00035
Henry solubility constant Hcp [4]: 0.00036
Henry solubility constant Hcp [5]: 0.00036
Henry solubility constant Hcp (reference: Dilling (1977)): 0.00046
Henry solubility constant Hcp (reference: Goldstein (1982)): 0.00033
Henry solubility constant Hcp (reference: Harrison et al. (1993)): 0.00038 and 0.00021
Henry solubility constant Hcp (reference: Liss and Slater (1974)): 0.00037
Henry solubility constant Hcp [6]: 0.00034
Henry solubility constant Hcp [7]: 0.00034

SMILES: N#Cc1c(Cl)c(Cl)c(Cl)c(C#N)c1Cl [2,4,5,6-tetrachloro-1,3-dicyanobenzene]
Henry solubility constant Hcp (reference: MacBean (2012b)): 39

SMILES: [C-]#[O+] [carbon monoxide]
Henry solubility constant Hcp [4]: 9.7e-06
Henry solubility constant Hcp [5]: 9.7e-06
Henry solubility constant Hcp [6]: 9.7e-06
Henry solubility constant Hcp [7]: 9.7e-06

Henry solubility constant Hcp (reference: Goldstein (1982)): 37
SMILES: c1ccc2ncccc2c1 [benzo[b]pyridine]

SMILES: C=CC1(C)OC(=O)N(c2cc(Cl)cc(Cl)c2)C1=O (configuration not stated) [vinclozoline]
Henry solubility constant Hcp [3]: 7.6

SMILES: CNC(=O)Oc1cccc2c1OC(C)(C)C2 [carbofuran]
Henry solubility constant Hcp [3]: 19

SMILES: CNC(C)=O [N-methylacetamide]
Henry solubility constant Hcp [4]: 2100
Henry solubility constant Hcp [5]: 2100

SMILES: ClBr [bromine chloride]
Henry solubility constant Hcp [4]: 0.0097
Henry solubility constant Hcp [5]: 0.0097
Henry solubility constant Hcp [6]: 0.0097
Henry solubility constant Hcp [7]: 0.0097

Henry solubility constant Hcp (reference: Brockbank (2013)): 1.1
SMILES: CC(=O)c1ccccc1 [1-phenylethanone]

SMILES: Cc1cccc(C)c1N(Cn1cccn1)C(=O)CCl [metazachlor]
Henry solubility constant Hcp [3]: 13

SMILES: OCOO [hydroxymethyl hydroperoxide]
Henry solubility constant Hcp [4]: 17000
Henry solubility constant Hcp [5]: 17000
Henry solubility constant Hcp [6]: 17000
Henry solubility constant Hcp [7]: 17000

Henry solubility constant Hcp (reference: Howard and Meylan (1997)): 0.0077
SMILES: CCCOCC [ethyl propyl ether]

SMILES: CCCC=O [butanal]
Henry solubility constant Hcp (reference: Brockbank (2013)): 0.091
Henry solubility constant Hcp [4]: 0.095
Henry solubility constant Hcp [5]: 0.095
Henry solubility constant Hcp [6]: 0.095
Henry solubility constant Hcp [7]: 0.095

SMILES: NCl [chloramine]
Henry solubility constant Hcp [4]: 0.86
Henry solubility constant Hcp [5]: 0.86
Henry solubility constant Hcp [6]: 0.86
Henry solubility constant Hcp [7]: 0.86

SMILES: Cc1[nH]c(=O)n(C(C)(C)C)c(=O)c1Cl [terbacil]
Henry solubility constant Hcp [3]: 550

Henry solubility constant Hcp [2]: 0.059
SMILES: c1ccc(CCc2ccccc2)cc1 [1,2-diphenylethane]

SMILES: Cc1ccccc1O [1-hydroxy-2-methylbenzene]
Henry solubility constant Hcp (reference: Brockbank (2013)): 6.7
Henry solubility constant Hcp (reference: Gaffney and Senum (1984)): 8.2
Henry solubility constant Hcp (reference: Howard (1989)): 6.2

SMILES: CC(=O)C(=O)O [2-oxopropanoic acid]
Henry solubility constant Hcp [4]: 3100
Henry solubility constant Hcp [5]: 3100
Henry solubility constant Hcp [6]: 3100
Henry solubility constant Hcp [7]: 3100

SMILES: ClCC(Cl)CCl [1,2,3-trichloropropane]
Henry solubility constant Hcp (reference: Brockbank (2013)): 0.033
Henry solubility constant Hcp [4]: 0.036
Henry solubility constant Hcp [5]: 0.036

Henry solubility constant Hcp (reference: Brockbank (2013)): 0.033
SMILES: CC(=O)OC(C)C [2-propyl ethanoate]

SMILES: CCBr [bromoethane]
Henry solubility constant Hcp (reference: Brockbank (2013)): 0.0013
Henry solubility constant Hcp [5]: 0.0013

Henry solubility constant Hcp (reference: Brockbank (2013)): 3e-06
SMILES: C=CCCCCCCCCCCCC [1-tetradecene]

Henry solubility constant Hcp (reference: Brockbank (2013)): 0.02
SMILES: CCCCCCOC(C)=O [hexyl ethanoate]

SMILES: CC(C)Nc1nc(Cl)nc(NC(C)C)n1 [propazine]
Henry solubility constant Hcp [3]: 99

Henry solubility constant Hcp (reference: Brockbank (2013)): 0.0006
SMILES: CCCCCc1ccccc1 [pentylbenzene]

Henry solubility constant Hcp (reference: Abraham (1984)): 0.35
SMILES: CCCCCCCCCCCCCCCCO [1-hexadecanol]

SMILES: Clc1cccc(Cl)c1 [1,3-dichlorobenzene]
Henry solubility constant Hcp (reference: Brockbank (2013)): 0.0031
Henry solubility constant Hcp [1]: 0.0034
Henry solubility constant Hcp (reference: Goldstein (1982)): 0.0039

Henry solubility constant Hcp (reference: Brockbank (2013)): 0.00056
SMILES: C#CCC [1-butyne]

Henry solubility constant Hcp (reference: Brockbank (2013)): 0.1
SMILES: CC(=O)OC1CCCCC1 [cyclohexyl ethanoate]

SMILES: CCOP(=S)(OCC)OP(=S)(OCC)OCC [sulfotep]
Henry solubility constant Hcp [3]: 0.0099

SMILES: CCC[N+](=O)[O-] [1-nitropropane]
Henry solubility constant Hcp (reference: Brockbank (2013)): 0.14
Henry solubility constant Hcp [4]: 0.13
Henry solubility constant Hcp [5]: 0.13
Henry solubility constant Hcp [6]: 0.13
Henry solubility constant Hcp [7]: 0.13

SMILES: c1ccc2c(c1)oc1ccccc12 [dibenzofuran]
Henry solubility constant Hcp (reference: Brockbank (2013)): 0.074
Henry solubility constant Hcp [2]: 0.091

SMILES: OCCO [1,2-ethanediol]
Henry solubility constant Hcp [4]: 6500
Henry solubility constant Hcp [5]: 6500

SMILES: [Cl][Hg][Cl] [mercury dichloride]
Henry solubility constant Hcp (reference: Kanefke (2008)): 13000
Henry solubility constant Hcp (reference: Lindqvist and Rodhe (1985)): 14000
Henry solubility constant Hcp (reference: Shon et al. (2005)): 240000
Henry solubility constant Hcp (reference: WHO (1990)): 14000

SMILES: [HH] [hydrogen]
Henry solubility constant Hcp (reference: Himmelblau (1960)): 7.8e-06
Henry solubility constant Hcp (reference: Hine and Weimar (1965)): 7.7e-06
Henry solubility constant Hcp (reference: Young (1981a)): 7.7e-06

Henry solubility constant Hcp (reference: Brockbank (2013)): 0.76
SMILES: CCCCCCO [1-hexanol]

SMILES: OCC(F)(F)F [2,2,2-trifluoroethanol]
Henry solubility constant Hcp [4]: 0.47
Henry solubility constant Hcp [5]: 0.47
Henry solubility constant Hcp [7]: 0.47

SMILES: c1ccc(-c2ccccc2)cc1 [biphenyl]
Henry solubility constant Hcp (reference: Brockbank (2013)): 0.036

SMILES: CCOCCOC(C)=O [2-ethoxyethyl ethanoate]
Henry solubility constant Hcp (reference: Brockbank (2013)): 3

Henry solubility constant Hcp (reference: Brockbank (2013)): 0.04
SMILES: CCCCC(=O)CCCC [5-nonanone]

SMILES: OCl [hypochlorous acid]
Henry solubility constant Hcp [4]: 6.5
Henry solubility constant Hcp [5]: 6.5
Henry solubility constant Hcp (reference: Huthwelker et al. (1995)): 6.5
Henry solubility constant Hcp [6]: 6.5
Henry solubility constant Hcp [7]: 6.5

SMILES: O=C(O)C(Br)Br [dibromoethanoic acid]
Henry solubility constant Hcp [4]: 2300
Henry solubility constant Hcp [5]: 2300
Henry solubility constant Hcp [7]: 2300

SMILES: COC(=O)Nc1cccc(OC(=O)Nc2cccc(C)c2)c1 [phenmedipham]
Henry solubility constant Hcp [3]: 120000

Henry solubility constant Hcp (reference: MacBean (2012b)): 110
SMILES: CC(C)OC(=O)N[C@@H](C(=O)N[C@H](C)c1nc2ccc(F)cc2s1)C(C)C [benthiavalicarb isopropyl]

SMILES: S=C=S [carbon disulfide]
Henry solubility constant Hcp [4]: 0.00061
Henry solubility constant Hcp [5]: 0.00061
Henry solubility constant Hcp (reference: Goldstein (1982)): 0.00075
Henry solubility constant Hcp [6]: 0.00061
Henry solubility constant Hcp [7]: 0.00061

SMILES: C=CCSC [allyl methyl sulfide]
Henry solubility constant Hcp [4]: 0.0042
Henry solubility constant Hcp [5]: 0.0042

SMILES: ClCCOCOCCCl [bis-(2-chloroethoxy)-methane]
Henry solubility constant Hcp (reference: Goldstein (1982)): 8.8 and 26

Henry solubility constant Hcp (reference: Brockbank (2013)): 0.22
SMILES: CC(C)CC(C)O (configuration not stated) [4-methyl-2-pentanol]

Henry solubility constant Hcp (reference: Brockbank (2013)): 4.6e-08
SMILES: FC(F)(F)C(F)(F)C(F)(F)C(F)(F)C(F)(F)F [dodecafluoropentane]

SMILES: C=CCO [2-propen-1-ol]
Henry solubility constant Hcp (reference: Goldstein (1982)): 4.3
Henry solubility constant Hcp (reference: Pierotti et al. (1959)): 2

Henry solubility constant Hcp (reference: Brockbank (2013)): 0.026
SMILES: COC(=O)C(C)C [methyl 2-methylpropanoate]

Henry solubility constant Hcp (reference: Brockbank (2013)): 15
SMILES: Cc1cc(C)cc(O)c1 [1-hydroxy-3,5-dimethylbenzene]

SMILES: CNC [dimethylamine]
Henry solubility constant Hcp (reference: Brockbank (2013)): 0.62
Henry solubility constant Hcp [4]: 0.55
Henry solubility constant Hcp [5]: 0.55

SMILES: CBr [bromomethane]
Henry solubility constant Hcp (reference: Brockbank (2013)): 0.0015
Henry solubility constant Hcp [4]: 0.0017
Henry solubility constant Hcp [5]: 0.0015
Henry solubility constant Hcp (reference: Goldstein (1982)): 4.4e-05
Henry solubility constant Hcp [6]: 0.0017
Henry solubility constant Hcp [7]: 0.0017

SMILES: ClC1C(Cl)C(Cl)C(Cl)C(Cl)C1Cl (stereo not drawn) [α-1,2,3,4,5,6-hexachlorocyclohexane]
Henry solubility constant Hcp (reference: Xiao et al. (2004)): 1.5 and 1.4

Henry solubility constant Hcp (reference: Brockbank (2013)): 0.28
SMILES: CCCCCCCN [1-heptanamine]

SMILES: ClCCCCCl [1,4-dichlorobutane]
Henry solubility constant Hcp (reference: Brockbank (2013)): 0.02

SMILES: CCCC1COC(Cn2cncn2)(c2ccc(Cl)cc2Cl)O1 (configuration not stated) [propiconazole]
Henry solubility constant Hcp [3]: 24
